Data taken from patent publication US9309286B2, “Compositions and methods for augmenting permeability barriers” (TUFTS MEDICAL CENTER, priority 2011, dated 2016).
Peptide text beside a SMILES is read from it.

Tests used:
rats [1] = test system: rats
rats [2] = experiment: Evans Blue leak into lungs of rats after p38 inhibitor; conditions: 1 μmol/kg

`C[C@H](NC(=O)[C@H](C)NC(=O)[C@@H]1CCCN1C(=O)[C@H](C)NC(=O)CNC(=O)[C@H](CCCNC(=N)N)NC(=O)[C@H](CCCNC(=N)N)NC(=O)[C@@H](NC(=O)CNC(=O)[C@@H]1CCCN1C(=O)[C@@H](NC(=O)[C@H](CCCNC(=N)N)NC(=O)[C@H](CCCNC(=N)N)NC(=O)[C@H](C)NC(=O)[C@@H]1CCCN1C(=O)[C@H](CC(N)=O)NC(=O)[C@H](CCCNC(=N)N)NC(=O)[C@@H]1CCCN1C(=O)[C@H](Cc1c[nH]cn1)NC(=O)[C@H](C)NC(=O)[C@H](CCCNC(=N)N)NC(=O)[C@H](C)NC(=O)[C@H](CCC(N)=O)NC(=O)[C@H](CCCNC(=N)N)NC(=O)[C@H](C)NC(=O)[C@H](C)NC(=O)[C@H](C)NC(=O)[C@H](CCCNC(=N)N)NC(=O)[C@H](C)NC(=O)[C@@H](N)Cc1ccc(O)cc1)[C@@H](C)O)[C@@H](C)O)C(N)=O` [MK2-activating peptide] (H-YARAAARQARAHPRNPARRTPGTRRGAPAA-NH2) was tested, and the “Lung weight/body weight, peptide alone” value (rats [1]) was “no significant effect”.

For `C[S+]([O-])c1ccc(-c2nc(-c3ccncc3)c(-c3ccc(F)cc3)[nH]2)cc1` (centres unmarked) [SB203580], the “Leak of intravenously injected Evans Blue into lungs” value (rats [2]) was “increase in leak”.
